This note sets out measurements from PubChem BioAssay AID330 (DTP/NCI, 2004).

Values joined by “and” are separate entries in the source; they are usually repeats but may differ in a detail not shown here. Equal values may be shown once. Inconclusive results and toxic doses are left out.

The test has as its system P388 leukemia ip, CD2F1 mice, survival T/C. The test can be described thus: NCI In Vivo Anticancer Drug Screen. Data for tumor model P388 Leukemia (intraperitoneal) in CD2F1 (CDF1) mice. The note with it: endpoint: median survival time, higher = longer survival. The gist of the method:
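Mice carrying the transplanted tumor received test compound or vehicle. Survival was recorded in each group, and the value is the treated-group measurement divided by that of the vehicle-treated control group.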

[1] abbreviates: dose: 100.0 mg/kg/injection, schedule: Q04DX002 (ip), vehicle: saline with Tween-80.
The mark [2] stands for this setting: dose: 6.25 mg/kg/injection, schedule: Q01DX009 (ip), vehicle: saline with Tween-80.
[3] abbreviates: dose: 12.5 mg/kg/injection, schedule: Q01DX009 (ip), vehicle: saline with Tween-80.
[4] abbreviates: dose: 25.0 mg/kg/injection, schedule: Q01DX009 (ip), vehicle: saline with Tween-80.
[5] abbreviates: dose: 50.0 mg/kg/injection, schedule: Q01DX009 (ip), vehicle: saline with Tween-80.
[6] abbreviates: dose: 60.0 mg/kg/injection, schedule: Q01DX005 (ip), vehicle: Klucel (hydroxypropylcellulose) (HPC).
The mark [7] stands for this setting: dose: 120.0 mg/kg/injection, schedule: Q01DX005 (ip), vehicle: Klucel (hydroxypropylcellulose) (HPC).
Where [8] appears, read: dose: 60.0 mg/kg/injection, schedule: Q01DX005 (ip), vehicle: saline with Tween-80.
Setting [9] is: dose: 120.0 mg/kg/injection, schedule: Q01DX005 (ip), vehicle: saline with Tween-80.
Where [10] appears, read: dose: 240.0 mg/kg/injection, schedule: Q01DX005 (ip), vehicle: saline with Tween-80.
Where [11] appears, read: dose: 50.0 mg/kg/injection, schedule: Q01DX005 (ip), vehicle: Klucel (hydroxypropylcellulose) (HPC).
Where [12] appears, read: dose: 100.0 mg/kg/injection, schedule: Q01DX005 (ip), vehicle: Klucel (hydroxypropylcellulose) (HPC).
[13] abbreviates: dose: 100.0 mg/kg/injection, schedule: Q01DX005 (ip), vehicle: saline with Tween-80.
The mark [14] stands for this setting: dose: 200.0 mg/kg/injection, schedule: Q01DX005 (ip), vehicle: saline with Tween-80.
Setting [15] is: dose: 50.0 mg/kg/injection, schedule: Q01DX005 (ip), vehicle: saline with Tween-80.

Turning to `O=C(/C=C\c1ccc(C2OCCO2)cc1)c1ccccc1`, the T/C reads like this: under setting [1], 111 % of control; (dose: 200.0 mg/kg/injection, schedule: Q04DX002 (ip), vehicle: saline with Tween-80) 103 % of control; (dose: 400.0 mg/kg/injection, schedule: Q04DX002 (ip), vehicle: saline with Tween-80) 92 % of control.
In the case of `C/C=C1\CN2CCC34c5ccc(OC)cc5N(C)C3C2CC1C4C(=O)OC` (centres undefined), the T/C is 96 % of control (dose: 17.25 mg/kg/injection, schedule: Q01DX005 (ip), vehicle: acid diluted with saline) and 94 % of control (dose: 34.5 mg/kg/injection, schedule: Q01DX005 (ip), vehicle: acid diluted with saline).
On to `O=C(CBr)c1cccc([N+](=O)[O-])c1`, for which the T/C is, setting by setting: under setting [2], 101 % of control; under setting [3], 100 % of control; under setting [4], 109 % of control; under setting [5], 100 % of control.
Consider `CCOc1c(N=Nc2cccc([N+](=O)[O-])c2)c(C)nn1C(=S)SC`, for which the T/C under setting [6] was 93 % of control and the T/C under setting [7] was 90 % of control.
For the molecule `O=C1c2ccccc2-c2nnsc21`, the T/C reads like this: under setting [6], 98 % of control; under setting [7], 107 % of control; (dose: 240.0 mg/kg/injection, schedule: Q01DX005 (ip), vehicle: Klucel (hydroxypropylcellulose) (HPC)) 100 % of control.
In the case of `O=c1c2ccccc2nc(-c2cccc([N+](=O)[O-])c2)n1O`, the T/C runs as follows: under setting [8], 89 % of control; under setting [9], 100 % of control; under setting [10], 91 % of control.
As to `COC1/C=C/OC2(C)Oc3c(C)c(O)c4c(O)c(c(/C=N/N5CC(C)N(C(=O)c6ccccc6)C(C)C5)c(O)c4c3C2=O)NC(=O)C(C)=C/C=C/C(C)C(O)C(C)C(O)C(C)C(OC(C)=O)C1C` (centres undefined), the T/C was 124 % of control under setting [3]; 124 % of control under setting [4]; 118 % of control under setting [5]; 116 % of control (dose: 100.0 mg/kg/injection, schedule: Q01DX009 (ip), vehicle: saline with Tween-80); 109 % of control (dose: 200.0 mg/kg/injection, schedule: Q01DX009 (ip), vehicle: saline with Tween-80).
In the case of `CC1(C)Cc2c([nH]c3ccccc3c2=O)-c2ccccc21`, the T/C runs as follows: under setting [11], 96 % of control; under setting [12], 100 % of control; (dose: 200.0 mg/kg/injection, schedule: Q01DX005 (ip), vehicle: Klucel (hydroxypropylcellulose) (HPC)) 103 % of control.
`CNC(=O)OCc1c(C)sc(-c2ccccc2)c1COC(=O)NC`: the T/C is, setting by setting: (dose: 12.5 mg/kg/injection, schedule: Q01DX005 (ip), vehicle: distilled water + Tween-80) 93 % of control; (dose: 25.0 mg/kg/injection, schedule: Q01DX005 (ip), vehicle: distilled water + Tween-80) 95 % of control; (dose: 50.0 mg/kg/injection, schedule: Q01DX005 (ip), vehicle: distilled water + Tween-80) 98 % of control; (dose: 100.0 mg/kg/injection, schedule: Q01DX005 (ip), vehicle: distilled water + Tween-80) 86 % of control.
For `CCCCCCCCCCSCC(N)CO` (centres undefined), the T/C reads like this: under setting [2], 93 % of control; under setting [3], 100 % of control; under setting [4], 100 % of control.
As to `COc1cccc2c1C(=O)c1c(O)c3c(c(O)c1C2=O)CC(O)(C(C)=O)CC3OC1CC(OC(=O)c2ccc([N+](=O)[O-])cc2)C(OC(=O)c2ccc([N+](=O)[O-])cc2)C(C)O1` (centres undefined), the T/C by setting is: (dose: 3.13 mg/kg/injection, schedule: Q04DX003 (ip), vehicle: distilled water + Tween-80) 100 % of control; (dose: 3.13 mg/kg/injection, schedule: Q04DX003 (ip), vehicle: saline with Tween-80) 100 % of control and 101 % of control; (dose: 6.25 mg/kg/injection, schedule: Q04DX003 (ip), vehicle: distilled water + Tween-80) 108 % of control; (dose: 6.25 mg/kg/injection, schedule: Q04DX003 (ip), vehicle: saline with Tween-80) 104 % of control and 100 % of control; (dose: 12.5 mg/kg/injection, schedule: Q04DX003 (ip), vehicle: distilled water + Tween-80) 101 % of control; (dose: 12.5 mg/kg/injection, schedule: Q04DX003 (ip), vehicle: saline with Tween-80) 101 % of control and 95 % of control. Further, the T/C (dose: 25.0 mg/kg/injection, schedule: Q04DX003 (ip), vehicle: distilled water + Tween-80) is 95 % of control; the T/C (dose: 25.0 mg/kg/injection, schedule: Q04DX003 (ip), vehicle: saline with Tween-80) was 101 % of control and 100 % of control; the T/C (dose: 50.0 mg/kg/injection, schedule: Q04DX003 (ip), vehicle: distilled water + Tween-80) is 156 % of control; the T/C (dose: 50.0 mg/kg/injection, schedule: Q04DX003 (ip), vehicle: saline with Tween-80) is 95 % of control and 100 % of control.
In the case of `COCCN1C(N)=C(C#N)C=C2CCCC(N=C(C#N)C#N)=C21`, the T/C is 101 % of control under setting [8], 102 % of control under setting [13] and 102 % of control under setting [14].
For the molecule `N#Cc1sc(SCC(=O)O)c(-[n+]2ccccc2)c1N`, the T/C is, setting by setting: (dose: 25.0 mg/kg/injection, schedule: Q04DX002 (ip), vehicle: saline with Tween-80) 95 % of control; (dose: 50.0 mg/kg/injection, schedule: Q04DX002 (ip), vehicle: saline with Tween-80) 104 % of control; under setting [1], 99 % of control.
Turning to `Cc1cccc(N2C(=O)CSC2=S)c1`, the T/C is 109 % of control under setting [3], 100 % of control under setting [4] and 103 % of control under setting [5].
In the case of `Cc1ccccc1NC(=O)C(=O)C(C#N)c1c(Cl)cccc1Cl` (centres undefined), the T/C was 114 % of control under setting [8], 100 % of control under setting [9] and 99 % of control under setting [10].
As for `O=C1/C(=c2\c3ccccc3n3c(=O)c4ccccc4nc23)Nc2ccccc21`, the T/C reads like this: (dose: 25.0 mg/kg/injection, schedule: Q01DX005 (ip), vehicle: Klucel (hydroxypropylcellulose) (HPC)) 92 % of control; under setting [11], 91 % of control; under setting [12], 91 % of control.
Turning to `COc1cc2cc(-c3ccccc3)[n+](C)cc2cc1OC`, the T/C runs as follows: (dose: 12.5 mg/kg/injection, schedule: Q01DX001 (ip), vehicle: saline) 95 % of control; (dose: 25.0 mg/kg/injection, schedule: Q01DX001 (ip), vehicle: saline) 110 % of control.
As to `CCC(CC)C(=O)NCC(=O)NO`, the T/C is 100 % of control (dose: 25.0 mg/kg/injection, schedule: Q01DX005 (ip), vehicle: saline with Tween-80); 103 % of control under setting [15]; 100 % of control under setting [13]; 95 % of control under setting [14].
For the molecule `Cc1ccc2[nH]c(C)c(C(=O)c3cccnc3)c2c1`, the T/C reads like this: (dose: 100.0 mg/kg/injection, schedule: Q04DX003 (ip), vehicle: Klucel (hydroxypropylcellulose) (HPC)) 92 % of control; (dose: 200.0 mg/kg/injection, schedule: Q04DX003 (ip), vehicle: Klucel (hydroxypropylcellulose) (HPC)) 91 % of control; (dose: 400.0 mg/kg/injection, schedule: Q04DX003 (ip), vehicle: Klucel (hydroxypropylcellulose) (HPC)) 110 % of control.
In the case of `COc1ccc2ccc3ccc(OC)nc3c2n1`, the T/C was 92 % of control under setting [8], 95 % of control under setting [9] and 108 % of control under setting [10].
In the case of `CC1(C)OC2CCC3OC(=O)C(C)(Cl)C3C2O1` (centres undefined), the T/C runs as follows: (dose: 12.5 mg/kg/injection, schedule: Q01DX009 (ip), vehicle: other) 116 % of control; (dose: 25.0 mg/kg/injection, schedule: Q01DX009 (ip), vehicle: other) 107 % of control; (dose: 50.0 mg/kg/injection, schedule: Q01DX009 (ip), vehicle: other) 99 % of control; (dose: 100.0 mg/kg/injection, schedule: Q01DX009 (ip), vehicle: other) 116 % of control.
With `CNC(=S)SSC(=S)NCCNC(=S)SSC(=S)NC`, the T/C by setting is: under setting [15], 99 % of control; under setting [13], 106 % of control; under setting [14], 101 % of control.
With `CCOC(=O)/C=C1\CONC(c2ccc(OC)cc2)=N1`, the T/C under setting [8] was 106 % of control, the T/C under setting [9] is 97 % of control and the T/C under setting [10] was 105 % of control.
